Experimental data: ChEMBL document CHEMBL3045290, “Novel salicylamide derivatives incorporating neonicotinoid pharmacophore: design, synthesis, characterization, and biological evaluation” (2013)

What was measured:
Type in all cases: functional
Helicoverpa armigera [1] = test: Insecticidal activity against Helicoverpa armigera fed on artificial diet containing compound assessed as mortality at 1000 ug/ml after 96 hr
Plutella xylostella [2] = test: Insecticidal activity against Plutella xylostella (diamondback moth) fed on artificial diet containing compound assessed as mortality at 1000 ug/ml after 96 hr
Plutella xylostella [3] = test: Insecticidal activity against Plutella xylostella (diamondback moth) fed on artificial diet containing compound assessed as mortality at 31.25 ug/ml after 96 hr
Helicoverpa armigera [4] = test: Insecticidal activity against Helicoverpa armigera fed on artificial diet containing compound assessed as mortality at 62.5 ug/ml after 96 hr
Plutella xylostella [5] = test: Insecticidal activity against Plutella xylostella (diamondback moth) fed on artificial diet containing compound assessed as mortality at 500 ug/ml after 96 hr
Helicoverpa armigera [6] = test: Insecticidal activity against Helicoverpa armigera fed on artificial diet containing compound assessed as mortality at 125 ug/ml after 96 hr
Plutella xylostella [7] = test: Insecticidal activity against Plutella xylostella (diamondback moth) fed on artificial diet containing compound assessed as mortality at 250 ug/ml after 96 hr
Helicoverpa armigera [8] = test: Insecticidal activity against Helicoverpa armigera fed on artificial diet containing compound assessed as mortality at 250 ug/ml after 96 hr
Helicoverpa armigera [9] = test: Insecticidal activity against Helicoverpa armigera fed on artificial diet containing compound assessed as mortality at 31.25 ug/ml after 96 hr
Plutella xylostella [10] = test: Insecticidal activity against Plutella xylostella (diamondback moth) fed on artificial diet containing compound assessed as mortality at 62.5 ug/ml after 96 hr
Helicoverpa armigera [11] = test: Insecticidal activity against Helicoverpa armigera fed on artificial diet containing compound assessed as mortality at 500 ug/ml after 96 hr
Plutella xylostella [12] = test: Insecticidal activity against Plutella xylostella (diamondback moth) fed on artificial diet containing compound assessed as mortality at 125 ug/ml after 96 hr

| SMILES | mortality at 1000 µg/mL (Helicoverpa armigera [1]) | mortality at 1000 µg/mL (Plutella xylostella [2]) | mortality at 31.25 µg/mL (Plutella xylostella [3]) | mortality at 62.5 µg/mL (Helicoverpa armigera [4]) | mortality at 500 µg/mL (Plutella xylostella [5]) | mortality at 125 µg/mL (Helicoverpa armigera [6]) | mortality at 250 µg/mL (Plutella xylostella [7]) | mortality at 250 µg/mL (Helicoverpa armigera [8]) | mortality at 31.25 µg/mL (Helicoverpa armigera [9]) | mortality at 62.5 µg/mL (Plutella xylostella [10]) | mortality at 500 µg/mL (Helicoverpa armigera [11]) | mortality at 125 µg/mL (Plutella xylostella [12]) |
| --- | --- | --- | --- | --- | --- | --- | --- | --- | --- | --- | --- | --- |
| Cc1ccccc1NC(=O)c1ccccc1OCc1ccc(Cl)nc1 | 0% | 0% | 0% | 0% | 0% | 0% | 0% | 0% | 0% | 0% | 0% | 0% |
| Cc1cc(Cl)ccc1NC(=O)c1ccccc1OCc1ccc(Cl)nc1 | 100% | 100% | 0% | 0% | 41% | 0% | 41% | 41% | 0% | 0% | 41% | 41% |
| O=C(Nc1ccc(F)cc1)c1ccccc1OCc1ccc(Cl)nc1 | 41% | 100% | 0% | 0% | 81% | 41% | 41% | 41% | 0% | 0% | 41% | 41% |
| O=C(Nc1ccc(I)cc1)c1ccccc1OCc1ccc(Cl)nc1 | 0% | 100% | 0% | 0% | 100% | 0% | 100% | 0% | 0% | 0% | 0% | 41% |
| O=C(Nc1cc(Cl)c(OC(F)(F)C(F)F)c(Cl)c1)c1ccccc1OCc1ccc(Cl)nc1 | 100% | 100% | 41% | 0% | 100% | 0% | 100% | 41% | 0% | 41% | 41% | 100% |
| CC(C)NC(=O)c1ccccc1OCc1ccc(Cl)nc1 | 41% | 100% | 0% | 0% | 100% | 0% | 100% | 0% | 0% | 0% | 41% | 41% |
| CC(C)N(C(=O)c1ccccc1OCc1ccc(Cl)nc1)C(C)C | 100% | 100% | 0% | 0% | 100% | 41% | 100% | 41% | 0% | 0% | 100% | 41% |
| CCN(CC)C(=O)c1ccccc1OCc1ccc(Cl)nc1 | 41% | 41% | 0% | 0% | 0% | 0% | 0% | 0% | 0% | 0% | 0% | 0% |
| N#CCN(C(=O)c1ccccc1OCc1ccc(Cl)nc1)c1ccccc1 | 100% | 0% | 0% | 0% | 0% | 41% | 0% | 41% | 0% | 0% | 81% | 0% |
| O=C(c1ccccc1OCc1ccc(Cl)nc1)N1CCCCC1 | 41% | 41% | 0% | 0% | 41% | 0% | 0% | 0% | 0% | 0% | 0% | 0% |
| O=C(c1ccccc1OCc1ccc(Cl)nc1)N1CCOCC1 | 100% | 41% | 0% | 0% | 0% | 0% | 0% | 0% | 0% | 0% | 41% | 0% |
| COc1ccc(NC(=O)c2ccccc2OCc2ccc(Cl)nc2)cc1 | 0% | 100% | 41% | 0% | 100% | 0% | 100% | 0% | 0% | 81% | 0% | 100% |
| O=C(Nc1ccccc1)c1ccccc1OCc1ccc(Cl)nc1 | 0% | 81% | 0% | 0% | 81% | 0% | 41% | 0% | 0% | 0% | 0% | 41% |
| O=C(NC1CCCCC1)c1ccccc1OCc1ccc(Cl)nc1 | 0% | 41% | 0% | 0% | 0% | 0% | 0% | 0% | 0% | 0% | 0% | 0% |
| O=C(Nc1ccc(Br)cc1)c1ccccc1OCc1ccc(Cl)nc1 | 100% | 100% | 41% | 61% | 100% | 81% | 100% | 81% | 61% | 100% | 100% | 100% |
| CC(C)c1ccc(NC(=O)c2ccccc2OCc2ccc(Cl)nc2)cc1 | 100% | 100% | 0% | 41% | 100% | 61% | 100% | 61% | 41% | 41% | 81% | 41% |
| O=C(Nc1ccc(C(F)(F)F)cc1)c1ccccc1OCc1ccc(Cl)nc1 | 100% | 100% | 81% | 100% | 100% | 100% | 100% | 100% | 61% | 100% | 100% | 100% |
| O=C(Nc1cc(C(F)(F)F)cc(C(F)(F)F)c1)c1ccccc1OCc1ccc(Cl)nc1 | 0% | 0% | 0% | 0% | 0% | 0% | 0% | 0% | 0% | 0% | 0% | 0% |
| O=C(Nc1ccccn1)c1ccccc1OCc1ccc(Cl)nc1 | 0% | 100% | 0% | 0% | 41% | 0% | 41% | 0% | 0% | 0% | 0% | 0% |
